24 compounds from patent US9102614B2, “Naphth-2-ylacetic acid derivatives to treat AIDS” (Gilead Sciences, Inc., priority 2010, dated 2015) can be followed below.

The test deals with HIV-IIIb. As to the kind of experiment: Test A: Antiviral Assays in MT4 Cells. It counts as cell-based. In short, it runs like this: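 MT-4 cells pre-infected with HIV-IIIb (0.004 m.o.i.) at 37 °C, then plated with 3-fold serially diluted compound (10 concentrations, quadruplicate, RPMI 1640/10% FBS). After 5 days at 37 °C, cell viability read by CellTiter-Glo chemiluminescence; mock-infected cells run in parallel.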

[1] abbreviates: Human immunodeficiency virus 1, IIIB, MT4, 120 h, MT-4 cells infected with HIV-IIIb (0.004 m.o.i.), 5 days of incubation, CellTiter-Glo chemiluminescence readout, read-out: EC50.
[2] abbreviates: MT-4 cells infected with HIV-IIIb (0.004 m.o.i.), 5 days of incubation, CellTiter-Glo chemiluminescence readout, read-out: EC50.

Like-named read-outs stand apart in the source and are kept apart here.

Turning to `Cc1cc2ccc(C#CC(C)(C)N)cc2c(-c2ccc3c(c2)CCCO3)c1C(OC(C)(C)C)C(=O)O` (stereo not drawn) [Compound 87, 2-(7-(3-Amino-3-methylbut-1-ynyl)-1-(chroman-6-yl)-3-methylnaphthalen-2-yl)-2-tert-butoxyacetic acid], the EC50 under setting [1] was 0.072 µM.

In the case of `Cc1cc2c(F)cc(F)cc2c(-c2ccc3c4c(ccnc24)CCO3)c1[C@H](OC(C)(C)C)C(=O)O` [Compound 110, (S)-2-tert-Butoxy-2-((R)-1-(2,3-dihydropyrano[4,3,2-de]quinolin-7-yl)-5,7-difluoro-3-methylnaphthalen-2-yl)acetic acid], the EC50 (Human immunodeficiency virus 1, IIIB, MT4, 120 h) stood at 0.067 µM. With `Cc1cc2c(C#N)cc(F)cc2c(-c2ccc3c4c(ccnc24)CCO3)c1[C@H](OC(C)(C)C)C(=O)O` [Compound 113A, (S)-2-tert-Butoxy-2-((R)-5-cyano-1-(2,3-dihydropyrano[4,3,2-de]quinolin-7-yl)-7-fluoro-3-methylnaphthalen-2-yl)acetic acid], the EC50 under setting [2] is 0.91 µM.

For the compound `Cc1cc2ccccc2c(-c2ccc(C(F)(F)F)c3cccnc23)c1[C@H](OC(C)(C)C)C(=O)O` [Compound 7E, (S)-2-tert-butoxy-2-((S)-3-methyl-1-(5-(trifluoromethyl)quinolin-8-yl)naphthalen-2-yl)acetic acid], under setting [2], the EC50 worked out at 20 µM. In the case of `Cc1cc2ccccc2c(-c2ccc(C(F)(F)F)c3cccnc23)c1[C@H](OC(C)(C)C)C(=O)O` [Compound 175], the EC50 under setting [1] is 20 µM. On to `Cc1c([C@H](OC(C)(C)C)C(=O)O)c(-c2ccc3c4c(ccnc24)CCO3)c2ccccc2c1C(N)=O` [Compound 183, (S)-2-tert-butoxy-2-((R)-4-carbamoyl-1-(2,3-dihydropyrano[4,3,2-de]quinolin-7-yl)-3-methylnaphthalen-2-yl)acetic acid], for which, under setting [1], the EC50 is 0.351 µM.

For the compound `Cc1cc2cc(F)ccc2c(-c2ccc3c4c(ccnc24)CCO3)c1C(OC(C)(C)C)C(=O)O` [Compound 43, 2-tert-butoxy-2-((R)-1-(2,3-dihydropyrano[4,3,2-de]quinolin-7-yl)-6-fluoro-3-methylnaphthalen-2-yl)acetic acid], the EC50 under setting [2] was 0.022 µM. Regarding `Cc1cc2ccccc2c(C2=CCC3(CC2)CC3)c1[C@H](OC(C)(C)C)C(=O)O` [Compound 15, (S)-2-tert-Butoxy-2-(3-methyl-1-(spiro[2.5]oct-5-en-6-yl)naphthalen-2-yl)acetic acid], the EC50 under setting [1] was found to be 0.015 µM. Turning to `Cc1cc2c(Cl)cccc2c(-c2ccc3c4c(ccnc24)CCO3)c1C(OC(C)(C)C)C(=O)O` [Compound 47, 2-tert-Butoxy-2-((R)-5-chloro-1-(2,3-dihydropyrano[4,3,2-de]quinolin-7-yl)-3-methylnaphthalen-2-yl)acetic acid], the concentration giving a half-maximal response (EC50) under setting [2] amounted to 0.11 µM. For the compound `Cc1cc2cc(C#N)c(F)cc2c(-c2ccc3c4c(ccnc24)CCO3)c1[C@H](OC(C)(C)C)C(=O)O` (atropisomer, axis not shown) [Compound 169], the EC50 under setting [1] amounted to 18 µM. As to `Cc1ccc2c(-c3ccc(Cl)cc3)c(C(OC(C)(C)C)C(=O)O)c(C)cc2c1` (stereo not drawn) [Compound 58, 2-tert-Butoxy-2-(1-(4-chlorophenyl)-3,6-dimethylnaphthalen-2-yl)acetic acid], the EC50 under setting [1] worked out at 0.042 µM. Regarding `Cc1cc2ccc(CC(C)C)cc2c(-c2ccc(Cl)cc2)c1C(OC(C)(C)C)C(=O)O` (stereo not drawn) [Compound 94, 2-tert-Butoxy-2-(1-(4-chlorophenyl)-7-isobutyl-3-methylnaphthalen-2-yl)acetic acid], under setting [1], the EC50 worked out at 12 µM.

On to `Cc1cc2ccc(C#CC(C)(C)N)cc2c(-c2ccc(Cl)cc2)c1[C@H](OC(C)(C)C)C(=O)O` [Compound 98, (S)-2-(7-(3-Amino-3-methylbut-1-ynyl)-1-(4-chlorophenyl)-3-methylnaphthalen-2-yl)-2-tert-butoxyacetic acid], for which the EC50 under setting [1] came out at 0.01 µM.

Turning to `Cc1cc2ccc(C#Cc3cncn3C)cc2c(-c2ccc(Cl)cc2)c1C(OC(C)(C)C)C(=O)O` (stereo not drawn) [Compound 81, 2-tert-Butoxy-2-(1-(4-chlorophenyl)-3-methyl-7-((1-methyl-1H-imidazol-5-yl)ethynyl)naphthalen-2-yl)acetic acid], under setting [1], the EC50 was 0.15 µM. Regarding `Cc1cc2ccc(C#CC(C)(O)c3ccccc3)cc2c(-c2ccc(Cl)cc2)c1C(OC(C)(C)C)C(=O)O` (stereo not drawn) [Compound 88, 2-tert-Butoxy-2-(1-(4-chlorophenyl)-7-(3-hydroxy-3-phenylbut-1-ynyl)-3-methylnaphthalen-2-yl)acetic acid], the EC50 under setting [1] amounted to 0.024 µM. The same measure, in the same setting: the same measure for `CC(C)(C)O[C@H](C(=O)O)c1c(C(F)F)cc2ccccc2c1-c1ccc2c3c(ccnc13)CCO2` [Compound 32, (S)-2-tert-Butoxy-2-((R)-3-(difluoromethyl)-1-(2,3-dihydropyrano[4,3,2-de]quinolin-7-yl)naphthalen-2-yl)acetic acid]: 0.086 µM; for `Cc1cc2ccccc2c(C2=CCC(C)(C)CC2)c1[C@H](OC(C)(C)C)C(=O)O` [Compound 14, (S)-2-tert-Butoxy-2-(1-(4,4-dimethylcyclohex-1-enyl)-3-methylnaphthalen-2-yl)acetic acid]: 0.011 µM. Regarding `Cc1c(C(OC(C)(C)C)C(=O)O)c(-c2ccc(Cl)cc2)c2ccccc2c1-c1ccc(=O)[nH]c1` (stereo not drawn) [Compound 144, 2-tert-Butoxy-2-(1-(4-chlorophenyl)-3-methyl-4-(6-oxo-1,6-dihydropyridin-3-yl)naphthalen-2-yl)acetic acid], the EC50 under setting [1] amounted to 1.3 µM. As to `Cc1cc2ccc(C#CC(C)(C)N)cc2c(-c2ccc(Cl)cc2)c1C(OC(C)(C)C)C(=O)O` (stereo not drawn) [Compound 85, 2-(7-(3-Amino-3-methylbut-1-ynyl)-1-(4-chlorophenyl)-3-methylnaphthalen-2-yl)-2-tert-butoxyacetic acid], the EC50 under setting [1] is 0.018 µM. `Cc1cc2c(Cl)cccc2c(-c2ccc(Cl)cc2)c1C(OC(C)(C)C)C(=O)O` (stereo not drawn) [Compound 45, 2-tert-Butoxy-2-(5-chloro-1-(4-chlorophenyl)-3-methylnaphthalen-2-yl)acetic acid]: the EC50 under setting [1] came out at 1.8 µM. In the case of `CCC(C)(C)O[C@H](C(=O)O)c1c(C)cc2ccccc2c1-c1ccc2c3c(ccnc13)CCO2` [Compound 185, (S)-2-((R)-1-(2,3-dihydropyrano[4,3,2-de]quinolin-7-yl)-3-methylnaphthalen-2-yl)-2-(tert-pentyloxy)acetic acid], under setting [2], the EC50 is 0.024 µM. For `Cc1cc2ccccc2c(-c2ccc3c4c(ccnc24)CCO3)c1[C@H](OC(C)(C)C)C(=O)O` [Compound 5K, (S)-2-tert-Butoxy-2-((S)-1-(2,3-dihydropyrano[4,3,2-de]quinolin-7-yl)-3-methylnaphthalen-2-yl)acetic acid], under setting [2], the EC50 was found to be 4.6 µM.

For `Cc1cc2cc(C(N)=O)c(F)cc2c(-c2ccc3c4c(ccnc24)CCO3)c1[C@H](OC(C)(C)C)C(=O)O` (atropisomer, axis not shown) [Compound 168], the EC50 under setting [1] was 45 µM. Take `CCc1cc2cc(C)c([C@H](OC(C)(C)C)C(=O)O)c(-c3ccc4c5c(ccnc35)CCO4)c2cc1F` [Compound 104, (S)-2-tert-Butoxy-2-((R)-1-(2,3-dihydropyrano[4,3,2-de]quinolin-7-yl)-6-ethyl-7-fluoro-3-methylnaphthalen-2-yl)acetic acid]: the EC50 under setting [2] amounted to 0.036 µM.

The EC50 is the concentration giving half of the maximal effect.
